Results on eight compounds are retold here after ChEMBL document CHEMBL1201862, “PubChem BioAssay data set” (2004).

Active and inactive are the calls of the source. A value given as a limit tells only on which side of the number the result lay.

The target of assay [1] is T1, G-protein coupled receptor 35 (Homo sapiens, UniProt Q9HC97). Nature of the assay: SAR analysis of Agonists of the GPR35 Receptor using an Image-Based Assay - Set 4. [Related pubchem assays (depositor defined):AID2013, AID2026]. Format: functional.
T1 sequence (Q9HC97 whole entry): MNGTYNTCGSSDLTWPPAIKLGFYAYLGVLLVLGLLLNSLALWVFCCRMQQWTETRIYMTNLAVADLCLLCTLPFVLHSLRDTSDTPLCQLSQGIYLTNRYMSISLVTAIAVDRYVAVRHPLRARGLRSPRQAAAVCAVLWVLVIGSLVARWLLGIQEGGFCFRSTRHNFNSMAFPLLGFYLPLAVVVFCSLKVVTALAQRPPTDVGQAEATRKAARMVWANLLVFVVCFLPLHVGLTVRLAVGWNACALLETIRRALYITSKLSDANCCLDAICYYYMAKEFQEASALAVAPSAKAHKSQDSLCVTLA
The target in assay [2] is T2, Cannabinoid receptor 1 (Homo sapiens, UniProt P21554). As to the kind of experiment: SAR analysis of agonists of the Cannabinoid Receptor 1 using an Image-Based Assay - Set 4. [Related pubchem assays (depositor defined):AID2013, AID2026]. Format: functional.
T2 sequence (P21554 whole entry): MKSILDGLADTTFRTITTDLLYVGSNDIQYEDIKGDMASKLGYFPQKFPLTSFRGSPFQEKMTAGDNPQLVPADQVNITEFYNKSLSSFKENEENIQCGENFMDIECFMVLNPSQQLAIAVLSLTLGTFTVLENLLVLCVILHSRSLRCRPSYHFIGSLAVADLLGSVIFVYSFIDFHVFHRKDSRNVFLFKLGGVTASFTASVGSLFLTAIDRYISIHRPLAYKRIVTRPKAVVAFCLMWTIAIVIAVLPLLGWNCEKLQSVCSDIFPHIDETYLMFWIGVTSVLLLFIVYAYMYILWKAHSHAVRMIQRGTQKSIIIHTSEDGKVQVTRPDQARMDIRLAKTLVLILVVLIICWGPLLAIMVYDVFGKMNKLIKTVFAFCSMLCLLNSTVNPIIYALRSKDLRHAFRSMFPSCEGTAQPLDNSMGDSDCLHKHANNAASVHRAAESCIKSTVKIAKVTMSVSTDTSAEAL
For assay [3], the target named is T1, G-protein coupled receptor 35. As to the kind of experiment: SAR analysis of Antagonists of the GPR35 Receptor using an Image-Based Assay - Set 6. [Related pubchem assays (depositor defined):AID2013, AID2026]. Format: functional.
The target in assay [4] is T2, Cannabinoid receptor 1. Nature of the assay: SAR analysis of antagonists of the Cannabinoid Receptor 1 using an Image-Based Assay - Set 4. [Related pubchem assays (depositor defined):AID2013, AID2026]. Format: functional.
Assay [5] deals with G-protein coupled receptor 55 (Homo sapiens, UniProt Q9Y2T6). Nature of the assay: SAR Analysis of Selective Antagonists of GPR55 using an Image-Based Assay - Set 4. [Related pubchem assays (depositor defined):AID2013, AID2026]. The class given is functional.
Assay [6] addresses T3, Cannabinoid receptor 2 (Homo sapiens, UniProt P34972). Nature of the assay: SAR analysis of antagonists of the Cannabinoid Receptor 2 using an Image-Based Assay - Set 3. [Related pubchem assays (depositor defined):AID2013, AID2026]. The class given is functional.
For assay [7], the target named is T3, Cannabinoid receptor 2. Nature of the assay: SAR analysis of agonists of the Cannabinoid Receptor 2 using an Image-Based Assay - Set 3. [Related pubchem assays (depositor defined):AID2013, AID2026]. The class given is functional.
In another assay the target is Cytochrome P450 2C19 (Homo sapiens, UniProt P33261). As to the kind of experiment: Cytochrome panel assay with activity outcomes. Panel member name: p450-cyp2c19 Compounds with AC50 equal or less than 10 uM are considered active. The class given is functional. The conditions noted are these: read-out: AC50.
In the next assay the target is Cytochrome P450 2D6 (Homo sapiens, UniProt P10635).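 Also: CYP2D6 member of a cytochrome P450 panel assay.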
Assay [8] has as its target Voltage-dependent T-type calcium channel subunit alpha-1H (Homo sapiens, UniProt O95180). Nature of the assay: human CACNA1H calcium influx blockade – cell-based, synthetic library set 2, HEK293 HH8, Fluo-4, SAR follow-up (AID 493023). Format: functional.
For assay [9], the target named is T4, Type-1 angiotensin II receptor (Homo sapiens, UniProt P30556).
T4 sequence (P30556 whole entry): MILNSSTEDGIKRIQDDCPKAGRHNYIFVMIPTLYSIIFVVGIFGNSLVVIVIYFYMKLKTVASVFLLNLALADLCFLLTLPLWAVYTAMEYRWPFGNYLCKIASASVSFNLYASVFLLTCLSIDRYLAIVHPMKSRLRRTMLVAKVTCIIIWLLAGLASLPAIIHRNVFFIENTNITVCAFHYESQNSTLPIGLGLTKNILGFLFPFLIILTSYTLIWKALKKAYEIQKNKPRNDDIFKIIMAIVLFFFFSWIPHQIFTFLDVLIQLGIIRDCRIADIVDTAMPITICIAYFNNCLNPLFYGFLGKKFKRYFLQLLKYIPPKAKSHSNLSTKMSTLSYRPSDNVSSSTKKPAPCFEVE
Nature of the assay: agonist activity at AGTR1 – cell-based, uHTS hits, selectivity assay for APJ receptor agonist project, dose response (AID 488865).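 Also: beta-arrestin recruitment to AT1 measured by enzyme fragment complementation luminescence.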 The class given is functional.

Assay [10] deals with T5, Runt-related transcription factor 1/Core-binding factor subunit beta (Homo sapiens, UniProt Q01196+Q13951). Nature of the assay: disruptors of Runt domain/CBFb-SMMHC interaction – biochemical, FRET, Cerulean-Runt, Venus-CBFb-SMMHC, uHTS, […] (AID 1434). Format: protein assay.
T5 sequence (Q01196 whole entry, the tested form may be a part): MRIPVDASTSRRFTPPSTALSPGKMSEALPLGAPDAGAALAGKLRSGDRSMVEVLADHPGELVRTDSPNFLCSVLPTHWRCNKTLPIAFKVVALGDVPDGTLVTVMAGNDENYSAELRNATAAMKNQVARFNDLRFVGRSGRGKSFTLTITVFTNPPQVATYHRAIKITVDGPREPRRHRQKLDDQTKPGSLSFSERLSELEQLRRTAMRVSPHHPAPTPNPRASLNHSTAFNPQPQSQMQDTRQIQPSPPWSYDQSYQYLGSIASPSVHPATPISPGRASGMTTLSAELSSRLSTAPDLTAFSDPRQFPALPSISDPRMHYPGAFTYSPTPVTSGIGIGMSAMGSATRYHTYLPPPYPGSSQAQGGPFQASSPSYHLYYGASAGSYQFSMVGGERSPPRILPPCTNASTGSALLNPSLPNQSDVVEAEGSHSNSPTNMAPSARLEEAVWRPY
T5 sequence (Q13951 whole entry, the tested form may be a part): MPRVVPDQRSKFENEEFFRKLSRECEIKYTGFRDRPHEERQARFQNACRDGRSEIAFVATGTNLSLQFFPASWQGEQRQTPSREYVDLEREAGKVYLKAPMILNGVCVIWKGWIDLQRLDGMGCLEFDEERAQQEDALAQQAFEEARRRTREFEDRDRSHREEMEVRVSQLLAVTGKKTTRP
Assay [11] concerns the target T5, Runt-related transcription factor 1/Core-binding factor subunit beta. As to the kind of experiment: Runt domain/CBFb-SMMHC interaction disruptors – biochemical, TR-FRET (AID 1438). Format: protein assay. On the technique in general: Time-resolved FRET reads energy transfer from a long-lived donor to a nearby acceptor.
The nature of assay [12]: viability of PTEN-deleted HCT116 cells – cell-based, HCT116 PTEN knockout, dose response (AID 1047).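 Also: HCT116 colon tumor cells with PTEN knocked out; cells exposed to compound for 60 hours before readout.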 The class given is functional.
Assay [13] can be described thus: viability of HCT116 lacking mutant beta-catenin – cell-based, human colon tumor, dose response (AID 1045).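 Also: HCT116 colon tumor cells with beta catenin knocked out; cells exposed to compound for 60 hours.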 The class given is functional.
Assay [14] deals with T6, Microphthalmia-associated transcription factor (Homo sapiens, UniProt O75030).
T6 sequence (O75030 whole entry): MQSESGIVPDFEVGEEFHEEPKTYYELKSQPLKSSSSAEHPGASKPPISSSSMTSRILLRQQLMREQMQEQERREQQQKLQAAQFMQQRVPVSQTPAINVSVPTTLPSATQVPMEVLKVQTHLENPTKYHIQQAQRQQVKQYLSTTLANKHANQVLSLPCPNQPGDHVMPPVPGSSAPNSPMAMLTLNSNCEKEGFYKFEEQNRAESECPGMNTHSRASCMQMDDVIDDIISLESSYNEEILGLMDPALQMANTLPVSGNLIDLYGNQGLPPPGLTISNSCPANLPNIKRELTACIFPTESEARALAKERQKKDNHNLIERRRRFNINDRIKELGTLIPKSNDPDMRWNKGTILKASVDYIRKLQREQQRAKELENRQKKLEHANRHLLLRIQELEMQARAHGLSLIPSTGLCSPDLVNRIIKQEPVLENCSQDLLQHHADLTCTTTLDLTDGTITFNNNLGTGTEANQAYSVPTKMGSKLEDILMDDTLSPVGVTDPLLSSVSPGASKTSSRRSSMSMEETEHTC
As to the kind of experiment: reducers of TRPM1 reporter luminescence, concentration series – cell-based, SK-MEL-5, cherry-picked, set 3, MITF inhibitor project, dose response (AID 493073).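 Also: SK-MEL-5 melanoma cells with luciferase driven by the MITF target TRPM1 promoter.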 Format: functional.

A further assay deals with CHO. As to the kind of experiment: CHO cell viability loss, potency – luminescence, cytotoxicity control for TLR9-MyD88 binding inhibitor project, dose response (AID 588339).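 Also: CHO cells stably coexpressing TLR9 and MyD88 fusions from primary screen; compound exposure lasted 48 hours before viability readout.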 The class given is functional, cell-based, hamster. The conditions noted are these: Cricetulus griseus.
In a further assay the target is Beta Lactamase (Pseudomonas aeruginosa, UniProt Q932Y6). As to the kind of experiment: BLA reporter interference, concentration series – BLA reporter cells, FRET fluorescence, artefact control for TLR9-MyD88 binding inhibitor project, dose response (AID 588341).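 Also: cell based assay in CHO-K1 cells stably expressing beta-lactamase.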 Format: cell-based.
The next assay deals with Kallikrein-7 (Homo sapiens, UniProt P49862). As to the kind of experiment: Fluorescence Intensity-based biochemical primary high throughput dose response assay to identify activators of kallikrein-7 (K7) zymogen.
For a further assay, the target named is Mu-type opioid receptor (Homo sapiens, UniProt P35372). Nature of the assay: SAR Analysis of Antagonists of the MOR Receptor using an Image-Based Assay - Set 3. [Related pubchem assays (depositor defined):AID1777, AID1785, AID1786, AID1966, AID2133, AID2136, AID2284, AID2285, AID2420]. The class given is functional.
In assay [15] the target is T7, Kappa-type opioid receptor (Homo sapiens, UniProt P41145). As to the kind of experiment: SAR analysis of small molecule antagonists of the kappa opioid receptor via a luminescent beta-arrestin assay - Set 6. [Related pubchem assays (depositor defined):AID1777, AID1778, AID1785, AID1786, AID1966, AID2133, AID2136, AID2285]. The class given is functional.
T7 sequence (P41145 whole entry): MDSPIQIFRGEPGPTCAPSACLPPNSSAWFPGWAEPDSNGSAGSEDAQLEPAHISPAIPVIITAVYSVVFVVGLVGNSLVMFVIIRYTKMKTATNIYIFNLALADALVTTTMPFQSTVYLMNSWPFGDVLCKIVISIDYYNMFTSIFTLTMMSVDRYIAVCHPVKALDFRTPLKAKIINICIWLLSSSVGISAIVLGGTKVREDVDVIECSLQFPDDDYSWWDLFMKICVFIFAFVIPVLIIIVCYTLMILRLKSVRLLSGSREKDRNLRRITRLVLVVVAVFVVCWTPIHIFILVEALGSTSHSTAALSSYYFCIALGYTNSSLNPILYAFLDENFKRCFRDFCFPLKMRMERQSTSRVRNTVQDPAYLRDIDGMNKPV
Assay [16] has as its target Delta-type opioid receptor (Homo sapiens, UniProt P41143). As to the kind of experiment: SAR Analysis of Antagonists of the DOR Receptor using an Image-Based Assay - Set 3. [Related pubchem assays (depositor defined):AID1777, AID1785]. Format: functional.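 Also: U2OS cells expressing DOR1 and beta-arrestin GFP stimulated with 100 nM SNC80; imaging of GFP-tagged beta-arrestin moving into spots after receptor activation.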
For assay [17], the target named is T7, Kappa-type opioid receptor. Nature of the assay: SAR analysis of small molecule antagonists of the kappa opioid receptor via a luminescent beta-arrestin assay - Set 3. [Related pubchem assays (depositor defined):AID1777, AID1778, AID1785, AID1786, AID1966, AID2133, AID2136, AID2285, AID2495]. The class given is functional.
The target in assay [18] is T7, Kappa-type opioid receptor. Nature of the assay: SAR analysis of Antagonists of the Kappa Opioid Receptor (KOR) using an Image-Based Assay - Set 4. [Related pubchem assays (depositor defined):AID1777, AID1785]. The class given is functional.
Assay [19] addresses T8, E3 ubiquitin-protein ligase XIAP (Homo sapiens, UniProt P98170). Nature of the assay: Counter Screen using XIAP-Bir3 for Chemical Antagonists of Bir1/2 domains of IAP-family anti-apoptotic proteins. [Related pubchem assays (depositor defined):AID1018, AID1449, AID1514, AID1638, AID1749, AID1750, AID488957, AID488963]. Background: The purpose of a counterscreen is to sort out artefacts and off-target activity.

Assay [20] deals with T8, E3 ubiquitin-protein ligase XIAP. Nature of the assay: small molecules displacing peptide from XIAP – biochemical, IAP family, fluorescence polarization (AID 1018). Format: functional. On the technique in general: In fluorescence polarisation assays a small probe gives low polarisation when free and higher when bound to something large.
A further assay addresses SUMO-activating enzyme (Homo sapiens, UniProt Q9UBT2). Nature of the assay: blockers of UBC9-mediated SUMO conjugation – biochemical, AlphaScreen, SUMOylation inhibitor project, confirmation (AID 2018). The class given is functional.
Assay [21] deals with Lysosomal acid glucosylceramidase (Homo sapiens, UniProt P04062). Nature of the assay: Dose response cell-based high throughput screening assay to identify enhancers of beta-glucosidase activity. [Related pubchem assays: 784 ]. Format: functional.
The target of assay [22] is Mitogen-activated protein kinase 10 (Homo sapiens, UniProt P53779). As to the kind of experiment: Dose response biochemical screening assay for inhibitors of c-Jun N-Terminal Kinase 3 (JNK3). [Related pubchem assays: 746 ].
The target in the next assay is T9, Coagulation factor XII (Homo sapiens, UniProt P00748).
T9 sequence (P00748 whole entry): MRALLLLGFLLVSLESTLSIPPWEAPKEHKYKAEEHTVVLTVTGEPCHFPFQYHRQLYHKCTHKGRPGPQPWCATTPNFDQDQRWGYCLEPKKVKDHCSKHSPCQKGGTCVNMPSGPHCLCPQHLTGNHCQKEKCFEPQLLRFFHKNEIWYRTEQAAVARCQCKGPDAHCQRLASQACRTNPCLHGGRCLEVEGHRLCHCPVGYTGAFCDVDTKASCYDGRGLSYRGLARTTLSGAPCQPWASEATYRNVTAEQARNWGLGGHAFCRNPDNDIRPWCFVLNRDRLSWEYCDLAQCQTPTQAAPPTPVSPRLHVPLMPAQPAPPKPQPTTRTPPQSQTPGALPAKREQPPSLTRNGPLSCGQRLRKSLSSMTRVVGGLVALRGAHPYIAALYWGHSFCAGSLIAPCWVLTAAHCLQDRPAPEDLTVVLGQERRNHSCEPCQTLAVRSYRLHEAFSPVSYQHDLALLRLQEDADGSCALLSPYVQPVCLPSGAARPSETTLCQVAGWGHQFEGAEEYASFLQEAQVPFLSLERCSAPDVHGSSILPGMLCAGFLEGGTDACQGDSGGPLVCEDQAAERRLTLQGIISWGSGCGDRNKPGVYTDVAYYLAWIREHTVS
Nature of the assay: Factor XIIa Dose Response Confirmation from Single Well HTS. [Related pubchem assays (depositor defined):AID701]. The class given is functional.

T3 sequence (P34972 whole entry): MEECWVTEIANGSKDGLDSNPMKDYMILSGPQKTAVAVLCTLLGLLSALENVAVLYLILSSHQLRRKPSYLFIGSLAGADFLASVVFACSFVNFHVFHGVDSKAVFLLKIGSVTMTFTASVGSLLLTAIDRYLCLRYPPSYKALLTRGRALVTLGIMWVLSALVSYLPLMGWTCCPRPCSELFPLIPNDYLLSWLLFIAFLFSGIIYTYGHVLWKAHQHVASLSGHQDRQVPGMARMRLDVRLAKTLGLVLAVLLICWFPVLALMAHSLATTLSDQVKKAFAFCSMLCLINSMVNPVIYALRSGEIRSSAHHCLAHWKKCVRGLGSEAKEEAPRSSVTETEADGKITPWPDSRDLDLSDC
T8 sequence (P98170 whole entry): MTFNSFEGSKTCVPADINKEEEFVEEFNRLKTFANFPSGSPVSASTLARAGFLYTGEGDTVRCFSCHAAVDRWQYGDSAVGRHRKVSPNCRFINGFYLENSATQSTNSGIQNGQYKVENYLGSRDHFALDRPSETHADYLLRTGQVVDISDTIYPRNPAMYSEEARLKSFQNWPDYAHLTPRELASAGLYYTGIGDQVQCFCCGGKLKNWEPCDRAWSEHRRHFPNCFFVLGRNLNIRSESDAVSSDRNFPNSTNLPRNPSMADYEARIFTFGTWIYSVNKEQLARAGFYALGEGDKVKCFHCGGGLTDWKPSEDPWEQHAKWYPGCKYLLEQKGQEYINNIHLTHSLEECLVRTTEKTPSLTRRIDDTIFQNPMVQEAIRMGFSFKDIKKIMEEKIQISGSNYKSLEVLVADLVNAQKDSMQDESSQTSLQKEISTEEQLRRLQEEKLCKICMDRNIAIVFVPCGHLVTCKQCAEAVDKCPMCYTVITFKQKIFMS
Chain of Voltage-dependent T-type calcium channel subunit alpha-1H (O95180 whole entry): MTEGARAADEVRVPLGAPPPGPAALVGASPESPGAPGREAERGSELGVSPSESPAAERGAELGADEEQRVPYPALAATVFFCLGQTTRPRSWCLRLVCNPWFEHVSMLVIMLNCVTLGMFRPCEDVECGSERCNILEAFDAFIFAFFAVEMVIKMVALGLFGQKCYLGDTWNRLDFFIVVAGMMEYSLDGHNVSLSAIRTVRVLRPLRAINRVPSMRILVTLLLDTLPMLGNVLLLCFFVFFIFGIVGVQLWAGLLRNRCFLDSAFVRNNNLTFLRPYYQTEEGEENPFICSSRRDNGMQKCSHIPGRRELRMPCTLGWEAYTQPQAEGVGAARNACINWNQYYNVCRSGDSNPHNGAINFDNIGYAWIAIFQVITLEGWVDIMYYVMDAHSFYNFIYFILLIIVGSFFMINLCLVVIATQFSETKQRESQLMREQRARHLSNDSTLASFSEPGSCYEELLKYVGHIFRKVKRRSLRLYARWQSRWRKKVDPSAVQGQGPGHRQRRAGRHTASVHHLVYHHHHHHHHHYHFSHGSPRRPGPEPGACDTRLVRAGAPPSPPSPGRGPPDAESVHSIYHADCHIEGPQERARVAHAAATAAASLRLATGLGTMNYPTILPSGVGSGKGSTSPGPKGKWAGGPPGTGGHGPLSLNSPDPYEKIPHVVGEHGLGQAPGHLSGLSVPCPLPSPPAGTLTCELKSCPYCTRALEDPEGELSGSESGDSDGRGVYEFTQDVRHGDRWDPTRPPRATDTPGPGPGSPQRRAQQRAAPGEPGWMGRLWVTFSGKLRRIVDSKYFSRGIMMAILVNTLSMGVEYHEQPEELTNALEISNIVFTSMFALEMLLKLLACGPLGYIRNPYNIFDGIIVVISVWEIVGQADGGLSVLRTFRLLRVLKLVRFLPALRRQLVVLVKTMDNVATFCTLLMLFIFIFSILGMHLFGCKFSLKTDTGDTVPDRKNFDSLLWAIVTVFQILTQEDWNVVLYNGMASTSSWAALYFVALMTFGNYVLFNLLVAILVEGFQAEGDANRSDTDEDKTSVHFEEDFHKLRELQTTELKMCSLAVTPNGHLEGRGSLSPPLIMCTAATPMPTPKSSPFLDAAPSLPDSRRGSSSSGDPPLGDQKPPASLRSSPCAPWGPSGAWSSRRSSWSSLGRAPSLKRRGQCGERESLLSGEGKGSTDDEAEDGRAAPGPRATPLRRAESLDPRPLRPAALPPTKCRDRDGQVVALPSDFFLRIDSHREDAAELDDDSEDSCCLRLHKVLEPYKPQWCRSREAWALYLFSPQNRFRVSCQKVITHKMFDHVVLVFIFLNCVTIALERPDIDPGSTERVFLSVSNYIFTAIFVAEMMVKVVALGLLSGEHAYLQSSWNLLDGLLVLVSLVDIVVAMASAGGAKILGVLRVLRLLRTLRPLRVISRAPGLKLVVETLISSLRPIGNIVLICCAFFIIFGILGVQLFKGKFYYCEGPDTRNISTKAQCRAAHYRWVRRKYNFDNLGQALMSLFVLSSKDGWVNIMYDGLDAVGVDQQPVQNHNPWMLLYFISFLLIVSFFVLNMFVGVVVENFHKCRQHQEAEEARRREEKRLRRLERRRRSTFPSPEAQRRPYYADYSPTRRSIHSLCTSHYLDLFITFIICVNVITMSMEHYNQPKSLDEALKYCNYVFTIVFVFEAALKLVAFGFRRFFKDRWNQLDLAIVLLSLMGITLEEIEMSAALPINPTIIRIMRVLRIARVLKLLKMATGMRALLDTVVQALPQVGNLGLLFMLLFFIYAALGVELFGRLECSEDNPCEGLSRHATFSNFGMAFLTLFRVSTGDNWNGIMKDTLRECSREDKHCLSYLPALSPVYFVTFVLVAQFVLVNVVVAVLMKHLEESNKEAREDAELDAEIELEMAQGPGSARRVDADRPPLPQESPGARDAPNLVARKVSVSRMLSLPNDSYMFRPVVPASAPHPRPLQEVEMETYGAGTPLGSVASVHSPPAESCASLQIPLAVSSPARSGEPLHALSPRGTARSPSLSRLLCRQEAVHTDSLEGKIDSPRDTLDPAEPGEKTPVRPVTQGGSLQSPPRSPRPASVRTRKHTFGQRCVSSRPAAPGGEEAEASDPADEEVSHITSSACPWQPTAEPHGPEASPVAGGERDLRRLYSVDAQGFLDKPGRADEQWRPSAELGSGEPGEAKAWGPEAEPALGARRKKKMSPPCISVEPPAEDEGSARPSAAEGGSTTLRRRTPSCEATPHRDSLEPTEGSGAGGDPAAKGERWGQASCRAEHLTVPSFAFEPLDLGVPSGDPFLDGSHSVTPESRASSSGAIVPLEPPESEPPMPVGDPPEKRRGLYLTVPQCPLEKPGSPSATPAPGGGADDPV

With `N=c1c(C(=O)NC2CCCC2)cc2c(=O)n3ccccc3nc2n1C1CCCC1`, the EC50 (in assay [1]; on Cannabinoid receptor 1 [2]; at Cannabinoid receptor 2 [7]) was > 32 µM (inactive) each time. For the same compound, the IC50 (in assay [3]; at Cannabinoid receptor 1 [4]; in assay [5]; on Cannabinoid receptor 2 [6]) was > 32 µM (inactive) in each case. Further, the AC50 at Cytochrome P450 2C19 is 11.2 µM (inconclusive); on Cytochrome P450 2D6 it was 3.55 µM (inconclusive).
Take `O=C(COc1ccc(F)cc1Cl)N[C@H]1CCCN(Cc2ccccc2)C1`: the half-maximal effective concentration (EC50) in assay [8] is 10 µM (active).
As for `CCSc1nc(O)c(CC)c(=O)n1C(C)CC` (stereo not given), in assay [9], the EC50 was > 100 µM (inactive).
With `OCCNc1c2ccccc2nc2c(F)c(F)c(F)c(F)c12`, the 50% inhibitory concentration (IC50) in [10] was 38.7 µM (active); in assay [11] it was > 100 µM (inactive); with CHO, 3.97 µM (active); at Beta Lactamase, 2.27 µM (active). Also, the EC50 is 3.83 µM (active) in [12], 2.16 µM (active) in [13] and > 69.5 µM (inactive) at Kallikrein-7. In assay [14], the AC50 is 4.14 µM (active).
Consider `Cc1ccnc2c1n1cccc1c(=O)n2CC(=O)NCCCN1CCN(c2ccc3c(c2)OCO3)CC1`, for which the IC50 at Mu-type opioid receptor was 17.2 µM (inactive); in [15], 0.482 µM (active); in [16], > 32 µM (inactive); in assay [17] it was 0.369 µM (active); in assay [18] it was 0.0451 µM (active).
For `Cc1ccc(-c2cc(C(=O)NC3=NCCS3)c3ccccc3n2)cc1C`, the IC50 in assay [19] is > 100 µM (inactive); in assay [20], > 100 µM (not active).
With `COc1ccc(NC2=NC(=O)/C(=C\c3ccco3)S2)cc1`, on SUMO-activating enzyme, the IC50 was 9.8 µM (active).
With `COc1ccc(C(=O)n2nc(-c3ccccc3)nc2N)cc1OC`, in assay [21], the concentration giving a half-maximal response (EC50) is > 10 µM (not active). The IC50 in assay [22] is 19.2 µM (not active); on Coagulation factor XII it was 2.6 µM (active).

The EC50 is the concentration at which the effect is half-maximal. As usually defined, the IC50 is the concentration needed to halve the response being measured. By AC50 is commonly meant the concentration at which the activity in the assay is half-maximal.
